Results from US7399608B2, “Microbial detection and quantification” (Kimberly-Clark Worldwide, Inc., priority 2003, dated 2008).

Experiments:
[1] = tested on: bacteria in aged chicken juice; test: Dye solution dropped onto aged chicken juice on SCOTT paper towel (comparative examples); settings: comparative dye solution dropped onto aged chicken juice on SCOTT paper towel
[2] = tested on: microbes in aged female human urine; test: N-methylmerocyanine coated onto kitchen paper towel, aged urine
[3] = tested on: budgerigar feces suspension; test: N-methyl merocyanine coated paper towel, pet bird feces suspension; settings: Atlanta city domestic tap water
Experimental: Budgerigar feces was collected from a caged pet budgie, and shaken in approximately 10 ml of Atlanta city domestic tap water. N-methyl merocyanine dye of structure 33 above was synthesized as described above.

[4] = tested on: bacteria in aged chicken juice; test: N-docosyl-merocyanine dye coated onto cotton fabric, aged chicken juice; settings: 47 mg in 10 g dimethylformamide, supernatant on woven cotton
Bleach indicator test = assay type: physicochemical; settings: mixture with Reichardt's dye coated on SCOTT towel

Row | SMILES | color change on aged chicken juice [1] | also measured
1 | O=C([O-])C1=NN(c2ccc(S(=O)(=O)[O-])cc2)C(=O)C1N=Nc1ccc(S(=O)(=O)[O-])cc1.[Na+].[Na+].[Na+] (centres unmarked) [Cl Acid Yellow 23, tartrazine] | No color changes were observed | 
2 | CC(=O)Nc1ccc(/N=N/c2c(N)ccc3cc(S(=O)(=O)[O-])cc(O)c23)c(S(=O)(=O)[O-])c1.[Na+].[Na+] [Cl Acid Red 37] | No color changes were observed | 
3 | COc1cc(/C=C/c2cc[n+](C)cc2)ccc1[O-] [N-methyl merocyanine dye] |  | color change with aged urine filtered through 0.2 micron filter ([2]; urine stored 24 hours at 37° C.): did not cause a color change; color change with aged urine filtered through 0.2 micron filter ([2]; urine stored 8 days at room temperature): did not cause a color change; color of coated towel with tap water control [3]: the area remained orange
4 | CCCCCCCCCCCCCCCCCCCCCC[n+]1ccc(C=Cc2ccc(O)cc2)cc1.[Br-] |  | color change of orange-yellow dye spots on cotton [4]: color change to very pale yellow
5 | Cc1ccc(Nc2ccc(Nc3ccc(C)cc3S(=O)(=O)[O-])c3c2C(=O)c2c(O)ccc(O)c2C3=O)c(S(=O)(=O)[O-])c1.[Na+].[Na+] [Cl Acid Green 41] | No color changes were observed | 
6 | Cc1cc(-c2cc(C)c(N)c(C)c2)cc(C)c1N [TMB, reference compound] |  | response of TMB to dilute bleach (Bleach indicator test): turning orange/yellow color
7 | O=C1/C(=C2\Nc3ccc(S(=O)(=O)[O-])cc3C2=O)Nc2ccc(S(=O)(=O)[O-])cc21.[Na+].[Na+] [Cl Acid Blue 74, Indigo Carmine] | No color changes were observed | 
8 | Cc1ccc(Nc2ccc(Nc3ccc(C)cc3S(=O)(=O)[O-])c3c2C(=O)c2ccccc2C3=O)c(S(=O)(=O)[O-])c1.[Na+].[Na+] [Cl Acid Green 25] | No color changes were observed | 
9 | CCN(CC)c1ccc2c(-c3ccc(S(=O)(=O)O)cc3S(=O)(=O)[O-])c3ccc(=[N+](CC)CC)cc-3oc2c1 [Cl Acid Red 52, sulforhodamine B] | No color changes were observed | 
